Ten compounds from patent US20110257168A1, “DERIVATIVES OF OXABISPIDINE AS NEURONAL NICOTINIC ACETYLCHOLINE RECEPTOR LIGANDS” (Targacept, Inc., priority 2008, published 2011) can be followed below.

One test has as its target T1, Rat α4β2 (Rattus norvegicus, UniProt P09483+P12390).
T1 construct: Preparation of membranes from rat tissues; Rat cortices were obtained from Analytical Biological Services; tissue Analytical Biological Services, Incorporated (ABS, Wilmington, Del.); host or cells: rat cortex membranes (female Sprague-Dawley)
The test is described as follows: Competition binding to rat α4β2 receptors in membrane preparations. As for the experimental part:
(§1) Preparation of membranes from rat tissues. Rat cortices were obtained from Analytical Biological Services, Incorporated (ABS, Wilmington, Del.). Tissues were dissected from female Sprague-Dawley rats, frozen and shipped on dry ice. Tissues were stored at −20° C. until needed for membrane preparation. Cortices from 10 rats were pooled and homogenized by Polytron (Kinematica GmbH, Switzerland) in 10 volumes (weight:volume) of ice-cold preparative buffer (KCl, 11 mM; KH2PO4, 6 mM; NaCl 137 mM; Na2HPO4 8 mM; HEPES (free acid), 20 mM; iodoacetamide, 5 mM; EDTA, 1.5 mM; 0.1 mM PMSF pH 7.4). The resulting homogenate was centrifuged at 40,000 g for 20 minutes at 4° C. and the resulting pellet was resuspended in 20 volumes of ice-cold water. After 60-minute incubation at 4° C., a new pellet was collected by centrifugation at 40,000 g for 20 minutes at 4° C. The final pellet was resuspended in preparative buffer and stored at −20° C. On the day of the assay, tissue was thawed, centrifuged at 40,000 g for 20 minutes and then resuspended in PBS (Dulbecco's Phosphate Buffered Saline, Life Technologies, pH 7.4) to a final concentration of 2-3 mg protein/mL. Protein concentrations were determined using the Pierce BCA Protein Assay kit (Pierce Biotechnology, Rockford, Ill.), with bovine serum albumin as the standard. Preparation of membranes from clonal cell lines. Cells were harvested in ice-cold PBS, pH 7.4, then homogenized with a polytron (Brinkmann Instruments, Westbury, N.Y.). Homogenates were centrifuged at 40,000 g for 20 minutes (4° C.). The pellet was resuspended in PBS and protein concentration determined using the Pierce BCA Protein Assay kit (Pierce Biotechnology, Rockford, Ill.).
(§2) Competition binding to receptors in membrane preparations. Binding to nicotinic receptors was assayed on membranes using standard methods adapted from published procedures (Lippiello and Fernandes, 1986; Davies et al., 1999). In brief, membranes were reconstituted from frozen stocks (approximately 0.2 mg protein) and incubated for 2 h on ice in […] assay buffer (PBS) in the presence of competitor compound (0.001 nM to […]) and radioligand. [^3H]-nicotine (L-(−)-[N-methyl-3H]-nicotine, 69.5 Ci/mmol, Perkin-Elmer Life Sciences) was used for human α4β2 binding studies. [^3H]-epibatidine (52 Ci/mmol, Perkin-Elmer Life Sciences) was used for binding studies at the other receptor subtypes. Incubation was terminated by rapid filtration on a multimanifold tissue harvester (Brandel, Gaithersburg, Md.) using GF/B filters presoaked in 0.33% polyethyleneimine (w/v) to reduce non-specific binding. Filters were washed 3 times and the radioactivity retained was determined by liquid scintillation counting.
(§3) Binding data analysis. Binding data were expressed as percent total control binding. Replicates for each point were averaged and plotted against the log of drug concentration. The IC50 (concentration of the compound that produces 50% inhibition of binding) was determined by least squares non-linear regression using GraphPad Prism software (GraphPAD, San Diego, Calif.). Ki was calculated using the Cheng-Prusoff equation (Cheng and Prusoff, 1973).

A further test deals with human α4β2 (Homo sapiens, UniProt P17787+P43681). The experiment in a line: Competition binding to human α4β2 receptors in membrane preparations. As for the experimental part: (§4) SH-EP1/human α4β2 (Eaton et al., 2003), SH-EP1/human α4β4 (Gentry et al., 2003), SH-EP1/α6β3β4α5 (Grinevich et al., 2005), TE671/RD and SH-SY5Y cell lines (obtained from Dr. Ron Lukas, Barrow Neurological Institute) were maintained in proliferative growth phase in Dulbecco's modified Eagle's medium (Gibco/BRL) with 10% horse serum (Gibco BRL), 5% fetal bovine serum (HyClone, Logan Utah), 1 mM sodium pyruvate, 4 mM L-glutamine. For maintenance of stable transfectants, the α4β2 and α4β4 cell media was supplemented with 0.25 mg/mL zeocin and 0.13 mg/mL hygromycin B. Selection was maintained for the α6β3β4α5 cells with 0.25 mg/mL of zeocin, 0.13 mg/mL of hygromycin B, 0.4 mg/mL of geneticin, and 0.2 mg/mL of blasticidin. HEK/human α7/RIC3 cells (obtained from J. Lindstrom, U. Pennsylvania) were maintained in proliferative growth phase in Dulbecco's modified Eagle's medium (Gibco/BRL) with 10% fetal bovine serum (HyClone, Logan Utah), 1 mM sodium pyruvate, 4 mM L-glutamine, 0.4 mg/mL geneticin; 0.2 mg/ml hygromycin B.
as §1, §2
(§5) Binding data analysis. Binding data were expressed as percent total control binding. Replicates for each point were averaged and plotted against the log of drug concentration. […]

Another test addresses T2, Rat α7 (Rattus norvegicus, UniProt Q05941).
T2 construct: Preparation of membranes from rat tissues; Rat cortices were obtained from Analytical Biological Services; tissue Analytical Biological Services, Incorporated (ABS, Wilmington, Del.); host or cells: rat brain membranes (only cortex is described)
The test is described as follows: Competition binding to rat α7 receptors in membrane preparations. As for the experimental part: as §1, §2, §3

A further test has as its target T3, Human α7 (Homo sapiens, UniProt P36544).
T3 construct: host or cells: HEK cells co-expressing RIC3
The experiment in a line: Competition binding to human α7 receptors in membrane preparations. As for the experimental part:
as §4, §1, §2, §5

Another test deals with male ICR mice. The test is described as follows: Formalin test (2.5%) in mice. It is filed as in vivo. As for the experimental part:
The formalin test in mice is a valid and reliable model of nociception and is sensitive for various classes of analgesic drugs. The noxious stimulus is an injection of dilute formalin (1% in saline) under the skin of the dorsal surface of the right hindpaw. The response is the amount of time the animals spend licking the injected paw. Two distinct periods of high licking activity can be identified, an early phase lasting the first 5 min and a late phase lasting from 20 to 30 min after the injection of formalin. See, Hunskaar et al., Pain, 1987, July; 30(1):103-14, incorporated by reference with regard to the test.
A formalin test was carried out in an open Plexiglas cage, with a mirror placed under the floor to allow an unobstructed view of the paws. Mice were allowed to acclimate for 15 min in the test cage before formalin injection. Each animal was injected with 20 μl of 2.5% formalin in the intraplantar region of the right hindpaw. Mice were then observed 0-5 min (Phase 1) and 20-45 min (Phase 2) post-formalin, and the amount of time spent (expressed in sec) licking the injected paw was recorded. Compound A or vehicle were injected s.c. 15 min before the formalin injection.
FIG. 1 illustrates the effects of Compound A in the formalin test (2.5%) in male ICR mice. As described, subject mice were pretreated with an s.c. injection of Compound A and 15 minutes later received formalin ipl. […] The lowest active dose was 3 mg/kg.

[1] abbreviates: membranes, [3H]-epibatidine competition, Ki by Cheng-Prusoff, read-out: Rat α4β2 Ki.
Where [2] appears, read: membranes, [3H]-epibatidine competition, Ki by Cheng-Prusoff, read-out: Rat α7 Ki.
The mark [3] stands for this setting: membranes, [3H]-epibatidine competition, Ki by Cheng-Prusoff, read-out: Human α7 Ki.
Where [4] appears, read: membranes, [3H]-nicotine competition, Ki by Cheng-Prusoff, read-out: human α4β2 Ki.

Each structure is given as a SMILES string. Read-outs that look alike come from different tables or passages of the source.

By Ki is commonly meant a measure of affinity in units of concentration, obtained from inhibition or displacement. Regarding `Clc1cc(N2CC3CNCC(C2)O3)cnc1Cl` [3-(5,6-dichloropyridin-3-yl)-9-oxa-3,7-diazabicyclo[3.3.1]nonane], the Ki at Rat α4β2 (setting [1]) was found to be 0.7 nM; at human α4β2, 0.3 nM; on Rat α7 (setting [2]) it was 84 nM; on Human α7 (setting [3]), 39 nM.

In the case of `Clc1ccc(Oc2cncc(N3CC4CNCC(C3)O4)c2)cc1Cl` [3-(5-(3,4-dichlorophenoxy)pyridin-3-yl)-9-oxa-3,7-diazabicyclo[3.3.1]nonane], the Ki amounted to 11 nM at Rat α4β2, 3.5 nM at human α4β2 (setting [4]), 210 nM at Rat α7 (setting [2]) and 360 nM at Human α7 (setting [3]).

Consider `Clc1cncc(N2CC3CNCC(C2)O3)c1` [3-(5-chloropyridin-3-yl)-9-oxa-3,7-diazabicydo[3.3.1]nonane], for which the inhibitory constant (Ki) at Rat α4β2 (setting [1]) turned out to be 2.1 nM; at human α4β2 it was 1 nM; on Rat α7 (setting [2]), 370 nM; on Human α7 (setting [3]) it was 180 nM.

For the compound `COc1cncc(N2CC3CNCC(C2)O3)c1` [3-(5-methoxypyridin-3-yl)-9-oxa-3,7-diazabicyclo[3.3.1]nonane], the inhibition constant (Ki) at Rat α4β2 was 1.9 nM; at human α4β2 (setting [4]), 0.9 nM; at Rat α7 (setting [2]), 560 nM; at Human α7 (setting [3]), 350 nM.

As for `Cc1cncc(N2CC3CNCC(C2)O3)c1` [3-(5-methylpyridin-3-yl)-9-oxa-3,7-diazabicydo[3.3.1]nonane], the Ki at Rat α4β2 is 0.5 nM; at human α4β2 (setting [4]), 0.3 nM; on Rat α7 (setting [2]), 200 nM; on Human α7 (setting [3]) it was 4500 nM.

Turning to `Clc1ccc(N2CC3CNCC(C2)O3)cn1` [3-(6-chloropyridin-3-yl)-9-oxa-3,7-diazabicydo[3.3.1]nonane], the Ki turned out to be 5.2 nM on Rat α4β2, 1.2 nM on human α4β2 (setting [4]), 210 nM at Rat α7 (setting [2]) and 240 nM at Human α7 (setting [3]).

On to `Fc1ccc(N2CC3CNCC(C2)O3)cn1` [3-(6-fluoropyridin-3-yl)-9-oxa-3,7-diazabicyclo[3.3.1]nonane], for which the Ki at Rat α4β2 was found to be 16 nM; at human α4β2 (setting [4]), 2.5 nM; at Rat α7 (setting [2]), 1400 nM; on Human α7 (setting [3]), 180 nM.

On to `c1cncc(N2CC3CNCC(C2)O3)c1` [3-(pyridin-3-yl)-9-oxa-3,7-diazabicyclo[3.3.1]nonane], for which the Ki on Rat α4β2 turned out to be 3.9 nM; at human α4β2 (setting [4]), 1.1 nM; at Rat α7 (setting [2]), 650 nM; on Human α7 (setting [3]), 670 nM.

Regarding `c1ncc(N2CC3CNCC(C2)O3)cn1` [3-(pyrimidin-5-yl)-9-oxa-3,7-diazabicyclo[3.3.1]nonane], the Ki on Rat α4β2 stood at 8 nM; at human α4β2 (setting [4]), 7.6 nM; at Rat α7 (setting [2]), 3200 nM; on Human α7 (setting [3]), 2900 nM.

Consider `Fc1cncc(N2CC3CNCC(C2)O3)c1` [Compound A, 3-(5-fluoropyridin-3-yl)-9-oxa-3,7-diazabicyclo[3.3.1]nonane], for which the Ki at Rat α4β2 worked out at 1.3 nM; on human α4β2 (setting [4]), 1.8 nM; on Rat α7, 36 nM; at Human α7 it was 76 nM. In the test with male ICR mice (0-5 min post-formalin, s.c. 15 min before formalin, F(1,35)=41.8, P<0.0001), the “nociceptive behavior (time licking the injected paw), Phase 1” value is on record as “significantly reduced”. For the same compound, the “nociceptive behavior (time licking the injected paw), Phase 2” value in the test with male ICR mice (20-45 min post-formalin, s.c. 15 min before formalin, F(1,35)=24.8, P<0.0001) is recorded as “significantly reduced”. In the test on male ICR mice (formalin test, s.c. administration), this compound had a lowest active dose of 3 mg/kg. Further, the “effects in formalin test in presence of mecamylamine” value in the test with male ICR mice (mecamylamine 2 mg/kg) is “blocked”.
